The record followed here is US7524862B2 (Boehringer Ingelheim International GmbH, priority 2004, dated 2009).

The assay has as its target T1, human hMCH-1R (Homo sapiens, UniProt Q99705).
T1 construct: expressed in transfected cells; host or cells: CHO/Galpha16 cells (stably transfected), membranes
In words: MCH-1 receptor binding test. The settings on record: membranes from CHO/Galpha16 cells stably transfected with hMCH-1R; 125I-MCH. The procedure: Membranes from CHO/Galpha16 cells stably transfected with human hMCH-1R are resuspended using a syringe (needle 0.6×25 mm) and diluted in test buffer (50 mM HEPES, 10 mM MgCl2, 2 mM EGTA, pH 7.00; 0.1% bovine serum albumin (protease-free), 0.021% bacitracin, 1 μg/mL aprotinin, 1 μg/mL leupeptin and 1 μM phosphoramidone) to a concentration of 5 to 15 μg/mL. […] After the incubation, the reaction is filtered using a cell harvester through 0.5% PEI treated fiberglass filters (GF/B, Unifilter Packard). The membrane-bound radioactivity retained on the filter is then determined after the addition of scintillator substance (Packard Microscint 20) in a measuring device (TopCount of Packard). […] The analysis of the concentration binding curve is carried out on the assumption of one receptor binding site.

Molecules are shown by their SMILES.

T1 sequence (Q99705 whole entry): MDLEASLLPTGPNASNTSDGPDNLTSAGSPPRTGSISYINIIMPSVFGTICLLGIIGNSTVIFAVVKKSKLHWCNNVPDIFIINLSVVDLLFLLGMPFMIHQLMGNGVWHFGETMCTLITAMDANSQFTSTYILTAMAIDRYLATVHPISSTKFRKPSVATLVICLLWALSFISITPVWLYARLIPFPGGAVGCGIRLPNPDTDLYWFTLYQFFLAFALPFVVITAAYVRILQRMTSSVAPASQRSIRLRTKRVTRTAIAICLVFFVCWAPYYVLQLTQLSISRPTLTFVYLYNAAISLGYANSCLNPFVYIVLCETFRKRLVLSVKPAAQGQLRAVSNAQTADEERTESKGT

As to `Cc1cc(N2CCC(C)CC2)nc2ccc(C#Cc3ccc(-c4ccc(Cl)cc4)cn3)cc12` [Example 1.43, 6-[5-(4-chlorophenyl)pyridin-2-ylethynyl]-4-methyl-2-(4-methylpiperidin-1-yl)quinoline], the IC50 amounted to 246 nM.

As for `Cc1cc(NC(C)C)nc2ccc(C#Cc3ccc(-c4ccc(Cl)cc4)cn3)cc12` [Example 1.44, {6-[5-(4-chlorophenyl)pyridin-2-ylethnyl]-4-methylquinolin-2-yl}isopropylamine], the IC50 was found to be 6.8 nM.

By IC50 is commonly meant the concentration at which inhibition is half-maximal. Read a high IC50 as weaker potency.
